Experimental data reported in ChEMBL document CHEMBL1275405, “Population pharmacokinetics of levofloxacin, gatifloxacin, and moxifloxacin in adults with pulmonary tuberculosis” (Antimicrob Agents Chemother, 2008).
In brackets after ≈: the same amount, converted by molar mass.

Columns and labels:
[1] = Tmax in tuberculosis patient at […], po administered for 7 days by HPLC; assay type: ADME, organism-based; conditions: human, in vivo
[2] = tested on: Mycobacterium tuberculosis; assay: microbe, parasite or virus in culture; conditions: 168 h
Description: Antimicrobial activity against Mycobacterium tuberculosis infected in patient at 400 mg/day, po administered for 7 days by HPLC

clinical [3] = conditions: human, in vivo, po, 400 mg/day
Description: Tmax in tuberculosis patient at 400 mg/day, po administered for 7 days by HPLC

[4] = Clearance in tuberculosis patient at 1000 mg/day, po administered for 7 days measured after 24 hrs by HPLC; assay type: ADME, organism-based; conditions: human, in vivo
[5] = tested on: Mycobacterium tuberculosis; assay type: functional; conditions: 168 h
clinical [6] = conditions: human, in vivo, po, 1000 mg/day
Description: Cmax in tuberculosis patient at 1000 mg/day, po administered for 7 days by HPLC

[7] = Ratio of fAUC in tuberculosis patient at 1000 mg/day, po administered for 7 days to MIC for Mycobacterium tuberculosis; assay type: functional

COc1c(N2CCNC(C)C2)c(F)cc2c(=O)c(C(=O)O)cn(C3CC3)c12 (centres undefined) [GATIFLOXACIN] showed a Tmax [1] of 8 h, an MIC [2] of 0.2 µg/mL (≈ 0.533 µM) and a Tmax at 168 h (clinical [3]) of 2 h.
In the case of C[C@H]1COc2c(N3CCN(C)CC3)c(F)cc3c(=O)c(C(=O)O)cn1c23.C[C@H]1COc2c(N3CCN(C)CC3)c(F)cc3c(=O)c(C(=O)O)cn1c23.O [LEVOFLOXACIN], the CL/F [4] is reported as 79 mL/min, the MIC [5] is reported as 0.5 µg/mL and the Cmax at 168 h (clinical [6]) is reported as 9000 ng/mL. For the same compound, the RatioAUC/MIC [7] was 187.67.
Compound COc1c(N2C[C@@H]3CCCN[C@@H]3C2)c(F)cc2c(=O)c(C(=O)O)cn(C3CC3)c12 [MOXIFLOXACIN] has an MIC [2] of 0.5 µg/mL (≈ 1.25 µM) and a Tmax at 168 h (clinical [3]) of 2 h.
